Data published in patent US7973061B2, “Anaplastic lymphoma kinase modulators and methods of use” (Exelixis, Inc., priority 2004, dated 2011).

Target: T1, ALK (baculovirus expressed human ALK kinase domain F1098-K1410) (Homo sapiens, UniProt Q9UM73)
T1 construct: human ALK kinase domain F1098-K1410; made in house
Assay: biochemical
Details: 1 μM ATP, 4 μM poly-AEKY, 12 nM ALK, 2 hours at ambient temperature; read-out: ALK IC50
How it was run: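 Inhibitors were tested at 10 concentrations, and IC50 was derived from a sigmoidal fit (Min, Max, Hill slope). Kinase activity was measured as percent ATP left after a 2 h reaction at room temperature, detected by luciferase-luciferin chemiluminescence. The ATP level was set close to KM for the ALK kinase domain F1098-K1410.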

T1 sequence (Q9UM73 1098-1410): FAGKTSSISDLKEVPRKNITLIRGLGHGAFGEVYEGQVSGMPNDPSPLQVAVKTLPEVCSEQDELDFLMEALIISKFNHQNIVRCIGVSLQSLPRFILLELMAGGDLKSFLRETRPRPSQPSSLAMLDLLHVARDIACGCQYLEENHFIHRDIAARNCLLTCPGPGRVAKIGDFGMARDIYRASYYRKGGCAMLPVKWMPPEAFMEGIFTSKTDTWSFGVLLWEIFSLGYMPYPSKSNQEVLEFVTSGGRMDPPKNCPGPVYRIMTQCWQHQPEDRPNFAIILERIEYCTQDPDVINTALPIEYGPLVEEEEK

## COc1ccc(CCNC(=O)c2coc(CNC(=O)COc3ccc(OC(F)(F)F)cc3)n2)cc1OC [Entry 155, N-{2-[3,4-bis(methyloxy)phenyl]ethyl}-2-({[({4-[(trifluoromethyl)oxy]phenyl}oxy)acetyl]amino}methyl)-1,3-oxazole-4-carboxamide]
  IC50: 50 to 500 nM

## O=C(COc1ccc(OC(F)(F)F)cc1)NCc1nc(C(=O)NCc2cccc(C(F)(F)F)c2)cs1 [Entry 156, 2-({[({4-[(trifluoromethyl)oxy]phenyl}oxy)acetyl]amino}methyl)-N-{[3-(trifluoromethyl)phenyl]methyl}-1,3-thiazole-4-carboxamide]
  IC50: 50 to 500 nM

## O=C(COc1ccc(OC(F)(F)F)cc1)NCc1nc(C(=O)NCc2cccc(I)c2)cs1 [Entry 157, N-[(3-iodophenyl)methyl]-2-({[({4-[(trifluoromethyl)oxy]phenyl}oxy)acetyl]amino}methyl)-1,3-thiazole-4-carboxamide]
  IC50: 50 to 500 nM

## O=C(COc1ccc(OC(F)(F)F)cc1)NCc1nc(C(=O)NCc2cccc(C(F)(F)F)c2F)cs1 [Entry 158, N-{[2-fluoro-3-(trifluoromethyl)phenyl]methyl}-2-({[({4-[(trifluoromethyl)oxy]phenyl}oxy)acetyl]amino}methyl)-1,3-thiazole-4-carboxamide]
  IC50: 50 to 500 nM

## O=C(COc1ccc(OC(F)(F)F)cc1)NCc1nc(C(=O)NCCc2cccs2)co1 [Entry 159, N-[2-(2-thienyl)ethyl]-2-({[({4-[(trifluoromethyl)oxy]phenyl}oxy)acetyl]amino}methyl)-1,3-oxazole-4-carboxamide]
  IC50: 50 to 500 nM

## O=C(COc1ccc(OC(F)(F)F)cc1)NCc1nc(C(=O)NCCc2ccc(Cl)cc2Cl)cs1 [Entry 160, N-[2-(2,4-dichlorophenyl)ethyl]-2-({[({4-[(trifluoromethyl)oxy]phenyl}oxy)acetyl]amino}methyl)-1,3-thiazole-4-carboxamide]
  IC50: 50 to 500 nM

## O=C(COc1cccc(Cl)c1)NCc1nc(C(=O)NCCc2cccc(Cl)c2)cs1 [Entry 161, N-[2-(3-chlorophenyl)ethyl]-2-[({[(3-chlorophenyl)oxy]acetyl}amino)methyl]-1,3-thiazole-4-carboxamide]
  IC50: 50 to 500 nM

## Cc1ccc([C@H](C)NC(=O)c2csc(CNC(=O)COc3ccc(OC(F)(F)F)cc3)n2)cc1 [Entry 162, N-[(1S)-1-(4-methylphenyl)ethyl]-2-({[({4-[(trifluoromethyl)oxy]phenyl}oxy)acetyl]amino}methyl)-1,3-thiazole-4-carboxamide]
  IC50: 50 to 500 nM

## O=C(COc1ccc(OC(F)(F)F)cc1)NCc1nc(C(=O)NCc2c(Cl)cccc2Oc2ccccc2)cs1 [Entry 163, N-{[2-chloro-6-(phenyloxy)phenyl]methyl}-2-({[({4-[(trifluoromethyl)oxy]phenyl}oxy)acetyl]amino}methyl)-1,3-thiazole-4-carboxamide]
  IC50: 50 to 500 nM

## O=C(COc1ccc(OC(F)(F)F)cc1)NCc1nc(C(=O)NCc2cccs2)cs1 [Entry 164, N-(2-thienylmethyl)-2-({[({4-[(trifluoromethyl)oxy]phenyl}oxy)acetyl]amino}methyl)-1,3-thiazole-4-carboxamide]
  IC50: 50 to 500 nM

## O=C(COc1ccc(OC(F)(F)F)cc1)NCc1nc(C(=O)N[C@@H]2CCCc3ccccc32)cs1 [Entry 165, N-[(1R)-1,2,3,4-tetrahydronaphthalen-1-yl]-2-({[({4-[(trifluoromethyl)oxy]phenyl}oxy)acetyl]amino}methyl)-1,3-thiazole-4-carboxamide]
  IC50: 50 to 500 nM

## Cc1cc(Cl)cc(Cl)c1CNC(=O)c1csc(CNC(=O)COc2ccc(OC(F)(F)F)cc2)n1 [Entry 166, N-[(2,4-dichloro-6-methylphenyl)methyl]-2-({[({4-[(trifluoromethyl)oxy]phenyl}oxy)acetyl]amino}methyl)-1,3-thiazole-4-carboxamide]
  IC50: 50 to 500 nM

## O=C(COc1ccc(OC(F)(F)F)cc1)NCc1nc(C(=O)NC(c2ccccc2)c2ccccc2)cs1 [Entry 167, N-(diphenylmethyl)-2-({[({4-[(trifluoromethyl)oxy]phenyl}oxy)acetyl]amino}methyl)-1,3-thiazole-4-carboxamide]
  IC50: 50 to 500 nM

## Cc1ccc(NC(=O)NCc2nc(C(=O)NCCc3cccc(Cl)c3)cs2)cc1 [Entry 168, N-[2-(3-chlorophenyl)ethyl]-2-[({[(4-methylphenyl)amino]carbonyl}amino)methyl]-1,3-thiazole-4-carboxamide]
  IC50: 50 to 500 nM

## O=C(Cc1ccc2ccccc2c1)NCc1nc(C(=O)NCCc2ccccc2F)cs1 [Entry 169, N-[2-(2-fluorophenyl)ethyl]-2-{[(naphthalen-2-ylacetyl)amino]methyl}-1,3-thiazole-4-carboxamide]
  IC50: 50 to 500 nM

## Cc1ccc(CNC(=O)c2csc(CNC(=O)COc3ccc(OC(F)(F)F)cc3)n2)cc1 [Entry 170, N-[(4-methylphenyl)methyl]-2-({[({4-[(trifluoromethyl)oxy]phenyl}oxy)acetyl]amino}methyl)-1,3-thiazole-4-carboxamide]
  IC50: 50 to 500 nM

## CCC(CC)NC(=O)c1csc(CNC(=O)COc2ccc(OC(F)(F)F)cc2)n1 [Entry 171, N-(1-ethylpropyl)-2-({[({4-[(trifluoromethyl)oxy]phenyl}oxy)acetyl]amino}methyl)-1,3-thiazole-4-carboxamide]
  IC50: 50 to 500 nM

## O=C(COc1ccc(OC(F)(F)F)cc1)NCc1nc(C(=O)NCC2CCCCC2)cs1 [Entry 172, N-(cyclohexylmethyl)-2-({[({4-[(trifluoromethyl)oxy]phenyl}oxy)acetyl]amino}methyl)-1,3-thiazole-4-carboxamide]
  IC50: 50 to 500 nM

## CSc1ccc(NC(=O)NCc2nc(C(=O)NCCc3cccc(Cl)c3)cs2)cc1 [Entry 173, N-[2-(3-chlorophenyl)ethyl]-2-{[({[4-(methylthio)phenyl]amino}carbonyl)amino]methyl}-1,3-thiazole-4-carboxamide]
  IC50: 50 to 500 nM

## O=C(COc1ccc(OC(F)(F)F)cc1)NCc1nc(C(=O)NCc2ccc(F)c(C(F)(F)F)c2)cs1 [Entry 174, N-{[4-fluoro-3-(trifluoromethyl)phenyl]methyl}-2-({[({4-[(trifluoromethyl)oxy]phenyl}oxy)acetyl]amino}methyl)-1,3-thiazole-4-carboxamide]
  IC50: 50 to 500 nM

## CC(C)(C)CCNC(=O)c1csc(CNC(=O)COc2ccc(OC(F)(F)F)cc2)n1 [Entry 175, N-(3,3-dimethylbutyl)-2-({[({4-[(trifluoromethyl)oxy]phenyl}oxy)acetyl]amino}methyl)-1,3-thiazole-4-carboxamide]
  IC50: 50 to 500 nM

## O=C(COc1ccc(OC(F)(F)F)cc1)NCc1nc(C(=O)NCCC2=CCCCC2)co1 [Entry 176, N-(2-cyclohex-1-en-1-ylethyl)-2-({[({4-[(trifluoromethyl)oxy]phenyl}oxy)acetyl]amino}methyl)-1,3-oxazole-4-carboxamide]
  IC50: 50 to 500 nM

## CCCCNC(=O)c1csc(CNC(=O)COc2ccc(OC(F)(F)F)cc2)n1 [Entry 177, N-butyl-2-({[({4-[(trifluoromethyl)oxy]phenyl}oxy)acetyl]amino}methyl)-1,3-thiazole-4-carboxamide]
  IC50: 50 to 500 nM

## COc1ccc(CNC(=O)c2csc(CNC(=O)COc3ccc(OC(F)(F)F)cc3)n2)cc1 [Entry 178, N-{[4-(methyloxy)phenyl]methyl}-2-({[({4-[(trifluoromethyl)oxy]phenyl}oxy)acetyl]amino}methyl)-1,3-thiazole-4-carboxamide]
  IC50: 50 to 500 nM
